Data taken from ChEMBL document CHEMBL1201861, “Genomics of Drug Sensitity in Cancer screening data, Wellcome Trust Sanger Institute”.

Legend:
Test in all cases: cells
COR-L105 = assay type: functional, cell-based; conditions: Homo sapiens;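 also: cell growth inhibition determined with a viability assay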
Description: SANGER: Inhibition of human COR-L105 cell growth in a cell viability assay.

DBTRG-05MG = assay type: functional, cell-based; conditions: Homo sapiens;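 also: cell viability assay measuring growth inhibition of human DBTRG-05MG cells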
Description: SANGER: Inhibition of human DBTRG-05MG cell growth in a cell viability assay.

HCC1419 = assay type: functional, cell-based; conditions: Homo sapiens;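 also: growth inhibition of human HCC1419 cells, read out as cell viability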
Description: SANGER: Inhibition of human HCC1419 cell growth in a cell viability assay.

HMV-2 cell line = assay type: functional, cell-based; conditions: Homo sapiens;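 also: growth inhibition of HMV-II cells, read out with a cell viability assay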
Description: SANGER: Inhibition of human HMV-II cell growth in a cell viability assay.

HPAF-II = assay type: functional, cell-based; conditions: Homo sapiens;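 also: growth inhibition of HPAF-II cells, read out with a cell viability assay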
Description: SANGER: Inhibition of human HPAF-II cell growth in a cell viability assay.

HT-1376 = assay type: functional, cell-based; conditions: Homo sapiens
Description: SANGER: Inhibition of human HT-1376 cell growth in a cell viability assay.

HT-3 = assay type: functional, cell-based; conditions: Homo sapiens;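 also: growth inhibition measured with a cell viability readout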
Description: SANGER: Inhibition of human HT-3 cell growth in a cell viability assay.

Hs-578T = assay type: functional, cell-based; conditions: Homo sapiens
Description: SANGER: Inhibition of human Hs-578-T cell growth in a cell viability assay.

Huh-7 = assay type: functional, cell-based; conditions: Homo sapiens;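 also: HuH-7 cell growth inhibition, read out with a cell viability assay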
Description: SANGER: Inhibition of human HuH-7 cell growth in a cell viability assay.

IGROV-1 = assay type: functional, cell-based; conditions: Homo sapiens;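 also: reduction of IGROV-1 cell growth, read out with a viability assay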
Description: SANGER: Inhibition of human IGROV-1 cell growth in a cell viability assay.

JEG-3 = assay type: functional, cell-based; conditions: Homo sapiens;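 also: growth inhibition of human JEG-3 cells, read out with a cell viability assay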
Description: SANGER: Inhibition of human JEG-3 cell growth in a cell viability assay.

KYSE-270 = assay type: functional, cell-based; conditions: Homo sapiens;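 also: cell growth inhibition measured with a viability assay in the human KYSE-270 line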
Description: SANGER: Inhibition of human KYSE-270 cell growth in a cell viability assay.

KYSE-450 = assay type: functional, cell-based; conditions: Homo sapiens;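 also: cell growth inhibition measured by a viability assay in human KYSE-450 cells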
Description: SANGER: Inhibition of human KYSE-450 cell growth in a cell viability assay.

LCLC-103H cell line = assay type: functional, cell-based; conditions: Homo sapiens
Description: SANGER: Inhibition of human LCLC-103H cell growth in a cell viability assay.

LK-2 = assay type: functional, cell-based; conditions: Homo sapiens;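 also: growth inhibition of LK-2 cells, read out with a viability assay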
Description: SANGER: Inhibition of human LK-2 cell growth in a cell viability assay.

MDA-MB-175-VII = assay type: functional, cell-based; conditions: Homo sapiens
MG-63 = assay type: functional, cell-based; conditions: Homo sapiens;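 also: growth inhibition of human MG-63 cells, read out with a cell viability assay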
Description: SANGER: Inhibition of human MG-63 cell growth in a cell viability assay.

MHH-ES-1 = assay type: functional, cell-based; conditions: Homo sapiens;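 also: cell growth inhibition measured by a cell viability assay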
Description: SANGER: Inhibition of human MHH-ES-1 cell growth in a cell viability assay.

MKN-45 = assay type: functional, cell-based; conditions: Homo sapiens;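 also: growth inhibition of human MKN-45 cells, measured with a cell viability assay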
Description: SANGER: Inhibition of human MKN45 cell growth in a cell viability assay.

NB14 = assay type: functional, cell-based; conditions: Homo sapiens;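 also: growth inhibition of NB14 cells measured with a cell viability assay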
Description: SANGER: Inhibition of human NB14 cell growth in a cell viability assay.

NCI-H2009 = assay type: functional, cell-based; conditions: Homo sapiens;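 also: cell viability assay measuring inhibition of NCI-H2009 cell growth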
Description: SANGER: Inhibition of human NCI-H2009 cell growth in a cell viability assay.

NCI-H2052 = assay type: functional, cell-based; conditions: Homo sapiens;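 also: growth inhibition of NCI-H2052 cells, read out with a cell viability assay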
Description: SANGER: Inhibition of human NCI-H2052 cell growth in a cell viability assay.

NCI-H2170 = assay type: functional, cell-based; conditions: Homo sapiens;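 also: cell viability assay measuring growth inhibition of human NCI-H2170 cancer cells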
Description: SANGER: Inhibition of human NCI-H2170 cell growth in a cell viability assay.

OVCAR-8 = assay type: functional, cell-based; conditions: Homo sapiens;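 also: growth inhibition of human OVCAR-8 cells, read out by a cell viability assay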
Description: SANGER: Inhibition of human OVCAR-8 cell growth in a cell viability assay.

RD = assay type: functional, cell-based; conditions: Homo sapiens
Description: SANGER: Inhibition of human RD cell growth in a cell viability assay.

RPMI-2650 = assay type: functional, cell-based; conditions: Homo sapiens
Description: SANGER: Inhibition of human RPMI-2650 cell growth in a cell viability assay.

SAS = assay type: functional, cell-based; conditions: Homo sapiens;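 also: growth inhibition of SAS cells, read out with a cell viability assay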
Description: SANGER: Inhibition of human SAS cell growth in a cell viability assay.

SBC-5 = assay type: functional, cell-based; conditions: Homo sapiens;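 also: cell viability assay read-out, IC50 is the concentration that inhibits growth of the cells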
Description: SANGER: Inhibition of human SBC-5 cell growth in a cell viability assay.

SK-MEL-24 = assay type: functional, cell-based; conditions: Homo sapiens;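 also: growth inhibition read out by a cell viability assay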
Description: SANGER: Inhibition of human SK-MEL-24 cell growth in a cell viability assay.

SK-MEL3 = assay type: functional, cell-based, SK-MEL-3; conditions: Homo sapiens;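 also: growth inhibition of human SK-MEL-3 cells, read out with a cell viability assay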
Description: SANGER: Inhibition of human SK-MEL-3 cell growth in a cell viability assay.

SNU-387 = assay type: functional, cell-based; conditions: Homo sapiens
Description: SANGER: Inhibition of human SNU-387 cell growth in a cell viability assay.

SNU-449 = assay type: functional, cell-based; conditions: Homo sapiens
Description: SANGER: Inhibition of human SNU-449 cell growth in a cell viability assay.

SW1783 = assay type: functional, cell-based; conditions: Homo sapiens;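 also: cell growth inhibition measured with a viability assay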
Description: SANGER: Inhibition of human SW1783 cell growth in a cell viability assay.

SW-620 = assay type: functional, cell-based; conditions: Homo sapiens;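 also: growth inhibition of human SW-620 cells, measured by a cell viability assay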
Description: SANGER: Inhibition of human SW620 cell growth in a cell viability assay.

SW626 = assay type: functional, cell-based; conditions: Homo sapiens;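 also: growth inhibition of SW626 cells, measured with a cell viability assay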
Description: SANGER: Inhibition of human SW626 cell growth in a cell viability assay.

SW756 = assay type: functional, cell-based; conditions: Homo sapiens;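 also: growth inhibition of human SW756 cells, read out with a cell viability assay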
Description: SANGER: Inhibition of human SW756 cell growth in a cell viability assay.

TCC-SUP = assay type: functional, cell-based; conditions: Homo sapiens;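 also: growth inhibition of TCC-SUP cells, read out with a cell viability assay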
Description: SANGER: Inhibition of human TCCSUP cell growth in a cell viability assay.

23132-87 = assay type: functional, cell-based; conditions: Homo sapiens
Description: SANGER: Inhibition of human 23132-87 cell growth in a cell viability assay.

A-431 = assay type: functional, cell-based; conditions: Homo sapiens;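 also: growth inhibition of A-431 cells, determined with a cell viability read-out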
Description: SANGER: Inhibition of human A431 cell growth in a cell viability assay.

ASPC1 = assay type: functional, cell-based; conditions: Homo sapiens;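 also: growth inhibition of AsPC-1 cells, read out with a cell viability assay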
Description: SANGER: Inhibition of human AsPC-1 cell growth in a cell viability assay.

CAL-120 = assay type: functional, cell-based; conditions: Homo sapiens;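 also: cell growth inhibition, read out as cell viability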
Description: SANGER: Inhibition of human CAL-120 cell growth in a cell viability assay.

CAL-12T = assay type: functional, cell-based, Homo sapiens; conditions: Homo sapiens, CAL-12T;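 also: growth inhibition of human CAL-12T cells, read out with a cell viability assay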
Description: SANGER: Inhibition of human CAL-12T cell growth in a cell viability assay.

CAL-72 = assay type: functional, cell-based; conditions: Homo sapiens;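 also: cell viability assay measuring inhibition of proliferation in the CAL-72 cell line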
Description: SANGER: Inhibition of human CAL-72 cell growth in a cell viability assay.

CAL-85-1 = assay type: functional, cell-based; conditions: Homo sapiens;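 also: growth inhibition of human CAL-85-1 cells, read out with a cell viability assay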
Description: SANGER: Inhibition of human CAL-85-1 cell growth in a cell viability assay.

U2OS = assay type: functional, cell-based, U-2-OS; conditions: Homo sapiens;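 also: growth inhibition of human U-2-OS cells, determined with a cell viability assay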
Description: SANGER: Inhibition of human U-2-OS cell growth in a cell viability assay.

UO-31 = assay type: functional, cell-based; conditions: Homo sapiens;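 also: cell viability assay measuring inhibition of cell growth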
Description: SANGER: Inhibition of human U031 cell growth in a cell viability assay.

VMRC-RCZ = assay type: functional, cell-based; conditions: Homo sapiens;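 also: growth inhibition measured with a cell viability assay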
Description: SANGER: Inhibition of human VMRC-RCZ cell growth in a cell viability assay.

CAMA-1 = assay type: functional, cell-based; conditions: Homo sapiens;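 also: growth inhibition of CAMA-1 cells, read out with a cell viability assay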
Description: SANGER: Inhibition of human CAMA-1 cell growth in a cell viability assay.

CHL-1 = assay type: functional, cell-based; conditions: Homo sapiens;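 also: cell growth inhibition, read out with a cell viability assay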
Description: SANGER: Inhibition of human CHL-1 cell growth in a cell viability assay.

Measured: IC50

Cn1cc(/C=C2\C(=O)Nc3cccnc32)c2ccccc21
0.44 µM: SW756
0.494 µM: COR-L105
> 2 µM: all other assays above

NC(=O)c1ncn([C@@H]2O[C@H](COP(=O)(O)O)[C@@H](O)[C@H]2O)c1N
1460 µM: NCI-H2009
354 µM: CAMA-1
1440 µM: JEG-3
668 µM: CAL-12T
1510 µM: MHH-ES-1
746 µM: SAS
1030 µM: TCC-SUP
472 µM: HT-3
1370 µM: LCLC-103H cell line
766 µM: UO-31
1450 µM: NB14
1330 µM: ASPC1
838 µM: CAL-120
1490 µM: NCI-H2052
321 µM: CAL-72
1300 µM: KYSE-450
1290 µM: DBTRG-05MG
1480 µM: SBC-5
not listed: RPMI-2650 | SK-MEL3 | CAL-85-1
> 2000 µM: all other assays above

COc1cc(Nc2c(C#N)cnc3cc(OCCCN4CCN(C)CC4)c(OC)cc23)c(Cl)cc1Cl [BOSUTINIB]
0.14 µM: SW756
0.555 µM: CHL-1
0.488 µM: IGROV-1
1.64 µM: HT-1376
1 µM: COR-L105
> 2 µM: all other assays above
